# Reference: patent US20250236616A1, “IMMUNOMODULATING AZALIDES” (Zoetis Services LLC, priority 2021, published 2025)
# Test system: TNF-α
# Assay: Whole bovine blood assay, LPS-induced TNF-α
# Format: cell-based
# Settings: fresh whole bovine blood, LPS stimulant; top drug concentration 250 μM
# Protocol: Whole Blood Assay-Fresh whole bovine blood samples were collected into heparinized vacutainer tubes. Assay plates were prepared with 25 μL of drug diluted in PBS at varying concentration in 96 round bottom wells, then 225 μL of blood was added and plates incubated at 37° C. for 4 hours. Cells were stimulated with LPS (or PBS for controls) by adding 25 μL to the plates at a final concentration of 1 μg/mL and incubated at 37° C. for 18 hours. To collect plasma, plates were centrifuged at 2,000×g for 10 minutes and 100 μL of supernatant was transferred to a 96 well polypropylene plate that was sealed and stored at −80° C. Samples were assayed for cytokines using the Meso Scale Discovery (MSD) platform (described below). This same MSD platform was used to assess cytokines in the plasma collected directly from drug treated animals.
# Cytokine Detection—An MSD U-Plex cytokine assay was developed following the MSD U-Plex protocol guide and included biotinylated capture antibodies against: bovine Interleukin (IL)-1β (Biorad), bovine IL-6 (R&D Systems) and bovine tumor necrosis factor (TNF)-α (R&D Systems). […] Assay calibrators (Kingfisher) were diluted to a concentration of […] in control lithium heparin plasma, followed by 4-fold serial dilutions into plasma. […] Antibodies were used at the following concentrations: anti-IL-1β at 1 μg/mL, anti-IL-6 at 1 μg/mL and anti-TNF-α at 0.5 μg/mL. Cytokines were quantified according to manufacturer's instructions using a chemiluminescent readout. In brief, 0.5 mL of all biotinylated antibodies were diluted to 10 μg/mL with Diluent 100 and paired to their respective linkers by adding 750 μL of supplied Linker solution and incubated for 30 minutes followed by addition of Stop solution for another 30 minutes. The linked antibodies were then diluted 10-fold into Stop solution. Plates were coated by adding 50 μL of antibody solutions per well and incubated covered and shaking for 1 hour at room temperature. Plates were washed three times with PBS/Tween20 prior to samples or standards being added at 30 μL per well and incubated as above. Plates were washed three times before detection antibodies were added along with 2% goat and rabbit serum to block and incubated same as above. Plates were washed a further three times before addition of 150 μL 2X Read buffer and read immediately on the SI6000 instrument (MSD). For soluble protein levels, a BCA protein kit (Thermofisher) was used. The cytokine concentrations (pg/mL) were normalized to the total protein levels for each sample. [Bassel et. al., BMC Veterinary Research (2020) 16:168]
# Therefore, a fresh whole bovine blood assay was developed with LPS as a stimulant (TLR-4 agonist) and with IL-1β and TNF-α as the read-out. Compounds of the invention were evaluated against a positive control for their ability to inhibit LPS-induced IL-1β and TNF-α as an overall evaluation of relative potency and modulation of target pathways.
# TNFα is a cell signaling protein, cytokine, that plays a key role in both acute and chronic inflammation. In the bovine whole blood in vitro screening assay the inhibition of TNFα as induced by stimulation by lipopolysaccharide (LPS) and as measured by half the maximal inhibitory concentration (IC50) is recognized as the primary biomarker of immunomodulation potency upon pretreatment with the compounds of the invention. IL-1 B is a mediator of the inflammation response and is involved in a number of cellular activities including proliferation, differentiation and apoptosis. IL-1ß is also released upon cellular stress or cytotoxicity or upon TLR stimulation. […] In order to estimate a therapeutic index from the in vitro assay a differential between the TNFα IC50 (immunomodulation potency) versus the perceived cellular toxicity concentration (IL-1β release or overstimulation) was utilized.
row,SMILES,IC50 [µM]
1,CCCNC[C@]1(O)[C@H](C)O[C@@H](O[C@H]2[C@H](C)[C@@H](O[C@@H]3O[C@H](C)C[C@H](N(C)S(=O)(=O)N(C)c4ccc(F)cc4)[C@H]3O)[C@](C)(O)C[C@@H](C)CN[C@H](C)[C@@H](O)[C@](C)(O)[C@@H](CC)OC(=O)[C@@H]2C)C[C@@]1(C)OC [Example B-61],37
2,CCOCCNC[C@]1(O)[C@H](C)O[C@@H](O[C@H]2[C@H](C)[C@@H](O[C@@H]3O[C@H](C)C[C@H](N(C)S(=O)(=O)Nc4ccc(C(F)(F)F)cc4)[C@H]3O)[C@](C)(O)C[C@@H](C)CN[C@H](C)[C@@H](O)[C@](C)(O)[C@@H](CC)OC(=O)[C@@H]2C)C[C@@]1(C)OC [Example B-83],30
3,CC[C@H]1OC(=O)[C@H](C)[C@@H](O[C@H]2C[C@@](C)(OC)[C@](O)(CNC3CCCC3)[C@H](C)O2)[C@H](C)[C@@H](O[C@@H]2O[C@H](C)C[C@H](N(C)S(=O)(=O)c3ccc(Cl)cc3)[C@H]2O)[C@](C)(O)C[C@@H](C)CN[C@H](C)[C@@H](O)[C@]1(C)O [Example B-22],9
4,CC[C@H]1OC(=O)[C@H](C)[C@@H](O[C@H]2C[C@@](C)(OC)[C@](O)(CNCC3CC3)[C@H](C)O2)[C@H](C)[C@@H](O[C@@H]2O[C@H](C)C[C@H](N(C)S(=O)(=O)c3ccc(Cl)cc3)[C@H]2O)[C@](C)(O)C[C@@H](C)CN[C@H](C)[C@@H](O)[C@]1(C)O [Example B-24],10
5,CC[C@H]1OC(=O)[C@H](C)[C@@H](O[C@H]2C[C@@](C)(OC)[C@](O)(CNCCCOC)[C@H](C)O2)[C@H](C)[C@@H](O[C@@H]2O[C@H](C)C[C@H](N(C)S(=O)(=O)Nc3ccc(C(F)(F)F)cc3)[C@H]2O)[C@](C)(O)C[C@@H](C)CN[C@H](C)[C@@H](O)[C@]1(C)O [Example B-78],21
6,CC[C@H]1OC(=O)[C@H](C)[C@@H](O[C@H]2C[C@@](C)(OC)[C@](O)(CNCCOC)[C@H](C)O2)[C@H](C)[C@@H](O[C@@H]2O[C@H](C)C[C@H](N(C)S(=O)(=O)Nc3ccc(C(F)(F)F)cc3)[C@H]2O)[C@](C)(O)C[C@@H](C)CN[C@H](C)[C@@H](O)[C@]1(C)O [Example B-84],51
7,CC[C@H]1OC(=O)[C@H](C)[C@@H](O[C@H]2C[C@@](C)(OC)[C@](O)(CNc3ccccc3)[C@H](C)O2)[C@H](C)[C@@H](O[C@@H]2O[C@H](C)C[C@H](N(C)S(=O)(=O)Nc3ccc(C(F)(F)F)cc3)[C@H]2O)[C@](C)(O)C[C@@H](C)CN[C@H](C)[C@@H](O)[C@]1(C)O [Example B-64],8
8,CC[C@H]1OC(=O)[C@H](C)[C@@H](O[C@H]2C[C@@](C)(OC)[C@](O)(CNc3ccccc3)[C@H](C)O2)[C@H](C)[C@@H](O[C@@H]2O[C@H](C)C[C@H](N(C)S(=O)(=O)c3ccc(Cl)cc3)[C@H]2O)[C@](C)(O)C[C@@H](C)CN[C@H](C)[C@@H](O)[C@]1(C)O [Example B-32],23
9,CC[C@H]1OC(=O)[C@H](C)[C@@H](O[C@H]2C[C@@](C)(OC)[C@](O)(CNCCC3CCOCC3)[C@H](C)O2)[C@H](C)[C@@H](O[C@@H]2O[C@H](C)C[C@H](N(C)S(=O)(=O)Nc3ccc(C(F)(F)F)cc3)[C@H]2O)[C@](C)(O)C[C@@H](C)CN[C@H](C)[C@@H](O)[C@]1(C)O [Example B-66],30

# Other lines, results leading:
row,IC50 [µM],SMILES
1,7,CC[C@H]1OC(=O)[C@H](C)[C@@H](O[C@H]2C[C@@](C)(OC)[C@](O)(CN3CCCCC3)[C@H](C)O2)[C@H](C)[C@@H](O[C@@H]2O[C@H](C)C[C@H](N(C)S(=O)(=O)Nc3ccc(C)c(C)c3)[C@H]2O)[C@](C)(O)C[C@@H](C)CN[C@H](C)[C@@H](O)[C@]1(C)O [Example C-33]
2,9,CC[C@H]1OC(=O)[C@H](C)[C@@H](O[C@H]2C[C@@](C)(OC)[C@](O)(CN3CCCCC3)[C@H](C)O2)[C@H](C)[C@@H](O[C@@H]2O[C@H](C)C[C@H](N(C)S(=O)(=O)Nc3ccccc3)[C@H]2Oc2ccc(F)cc2)[C@](C)(O)C[C@@H](C)CN[C@H](C)[C@@H](O)[C@]1(C)O [Example C-51]
3,14,CC[C@H]1OC(=O)[C@H](C)[C@@H](O[C@H]2C[C@@](C)(OC)[C@](O)(CN3CCCCC3)[C@H](C)O2)[C@H](C)[C@@H](O[C@@H]2O[C@H](C)C[C@H](N(C)S(=O)(=O)Nc3ccc(Br)cc3)[C@H]2O)[C@](C)(O)C[C@@H](C)CN[C@H](C)[C@@H](O)[C@]1(C)O [Example C-29]
4,9,CC[C@H]1OC(=O)[C@H](C)[C@@H](O[C@H]2C[C@@](C)(OC)[C@](O)(CN3CCCCC3)[C@H](C)O2)[C@H](C)[C@@H](O[C@@H]2O[C@H](C)C[C@H](N(C)S(=O)(=O)Nc3ccc(I)cc3)[C@H]2O)[C@](C)(O)C[C@@H](C)CN[C@H](C)[C@@H](O)[C@]1(C)O [Example C-30]
5,23,CC[C@H]1OC(=O)[C@H](C)[C@@H](O[C@H]2C[C@@](C)(OC)[C@](O)(CN3CCc4ccccc4C3)[C@H](C)O2)[C@H](C)[C@@H](O[C@@H]2O[C@H](C)C[C@H](N(C)S(=O)(=O)c3ccc(Cl)cc3)[C@H]2O)[C@](C)(O)C[C@@H](C)CN[C@H](C)[C@@H](O)[C@]1(C)O [Example C-10]
6,15,CC[C@H]1OC(=O)[C@H](C)[C@@H](O[C@H]2C[C@@](C)(OC)[C@](O)(CN3CCCCC3)[C@H](C)O2)[C@H](C)[C@@H](O[C@@H]2O[C@H](C)C[C@H](N(C)S(=O)(=O)Nc3ccccc3)[C@H]2Oc2ccccc2)[C@](C)(O)C[C@@H](C)CN[C@H](C)[C@@H](O)[C@]1(C)O [Example C-52]
7,8,CC[C@H]1OC(=O)[C@H](C)[C@@H](O[C@H]2C[C@@](C)(OC)[C@](O)(CN3CCCCC3)[C@H](C)O2)[C@H](C)[C@@H](O[C@@H]2O[C@H](C)C[C@H](N(C)S(=O)(=O)Nc3ccc(Cl)c(C(F)(F)F)c3)[C@H]2O)[C@](C)(O)C[C@@H](C)CN[C@H](C)[C@@H](O)[C@]1(C)O [Example C-31]

# Test system: IL-6
# Assay: Whole bovine blood assay, LPS-induced IL-6
# Format: cell-based
# Settings: fresh whole bovine blood, LPS stimulant; top drug concentration 250 μM
row,SMILES,IC50 [µM]
1,CCCNC[C@]1(O)[C@H](C)O[C@@H](O[C@H]2[C@H](C)[C@@H](O[C@@H]3O[C@H](C)C[C@H](N(C)S(=O)(=O)N(C)c4ccc(F)cc4)[C@H]3O)[C@](C)(O)C[C@@H](C)CN[C@H](C)[C@@H](O)[C@](C)(O)[C@@H](CC)OC(=O)[C@@H]2C)C[C@@]1(C)OC [Example B-61],71
2,CC[C@H]1OC(=O)[C@H](C)[C@@H](O[C@H]2C[C@@](C)(OC)[C@](O)(CNCCS(=O)(=O)c3ccccc3)[C@H](C)O2)[C@H](C)[C@@H](O[C@@H]2O[C@H](C)C[C@H](N(C)S(=O)(=O)Nc3ccc(C(F)(F)F)cc3)[C@H]2O)[C@](C)(O)C[C@@H](C)CN[C@H](C)[C@@H](O)[C@]1(C)O [Example B-128],23
3,CC[C@H]1OC(=O)[C@H](C)[C@@H](O[C@H]2C[C@@](C)(OC)[C@](O)(CNC3CCCCC3)[C@H](C)O2)[C@H](C)[C@@H](O[C@@H]2O[C@H](C)C[C@H](N(C)S(=O)(=O)Nc3ccc(C(F)(F)F)cc3)[C@H]2O)[C@](C)(O)C[C@@H](C)CN[C@H](C)[C@@H](O)[C@]1(C)O [Example B-69],16
4,CCCNC[C@]1(O)[C@H](C)O[C@@H](O[C@H]2[C@H](C)[C@@H](O[C@@H]3O[C@H](C)C[C@H](N(C)S(=O)(=O)c4nccn4C)[C@H]3Oc3ccc(F)cc3C)[C@](C)(O)C[C@@H](C)CN[C@H](C)[C@@H](O)[C@](C)(O)[C@@H](CC)OC(=O)[C@@H]2C)C[C@@]1(C)OC [Example B-121],5

# The next lines start with the values.
row,IC50 [µM],SMILES
1,7,CC[C@H]1OC(=O)[C@H](C)[C@@H](O[C@H]2C[C@@](C)(OC)[C@](O)(CN3CCCCC3)[C@H](C)O2)[C@H](C)[C@@H](O[C@@H]2O[C@H](C)C[C@H](N(C)S(=O)(=O)Nc3ccc(C)c(C)c3)[C@H]2O)[C@](C)(O)C[C@@H](C)CN[C@H](C)[C@@H](O)[C@]1(C)O [Example C-33]
2,4,CC[C@H]1OC(=O)[C@H](C)[C@@H](O[C@H]2C[C@@](C)(OC)[C@](O)(CN3CCCCC3)[C@H](C)O2)[C@H](C)[C@@H](O[C@@H]2O[C@H](C)C[C@H](N(C)S(=O)(=O)c3ccc(S(F)(F)(F)(F)F)cc3)[C@H]2O)[C@](C)(O)C[C@@H](C)CN[C@H](C)[C@@H](O)[C@]1(C)O [Example C-47]
3,4,CC[C@H]1OC(=O)[C@H](C)[C@@H](O[C@H]2C[C@@](C)(OC)[C@](O)(CN3CCCCC3)[C@H](C)O2)[C@H](C)[C@@H](O[C@@H]2O[C@H](C)C[C@H](N(CC(C)C)S(=O)(=O)c3ccc(OC)cc3)[C@H]2O)[C@](C)(O)C[C@@H](C)CN[C@H](C)[C@@H](O)[C@]1(C)O [Example C-43]
